{
  "source": "patent US20250034127A1",
  "about": "“AUTOPHAGY INDUCING COMPOUNDS AND USES THEREOF, IN PARTICULAR FOR DISEASES OF THE CNS” (Samsara Therapeutics Inc., priority 2021, published 2025)",
  "tested_on": "primary spinal cord lower motor neurons (MNs) from SOD1 G93A Tg rats",
  "test": "Cellular model of Amyotrophic Lateral Sclerosis (glutamate injury)",
  "type": "cell-based, rat",
  "protocol": "Compounds 157 (particularly) preferred), 185 and 196 were selected example compounds if this invention to evaluate in this model. This model (run by Neuro-Sys SAS, France) evaluates the protective effects of test compounds on primary spinal cord lower motor neurons (MNs) from SOD1 G93A Tg rats, after a glutamate injury. The MNs are pre-treated with the test compounds for 1 hour prior to exposure to glutamate, and readouts are measured 24 hours later. This model functions as an in vitro model of Amyotrophic Lateral Sclerosis. […] Any substances which can attenuate one or more of these effects can be considered to have protective effects in the model and may be useful as a new therapeutic agent for the treatment or prevention of ALS.\nGenotyping of SOD1 Tg embryos: Pregnant female rat SODIG93A (Sprague Dawley, Taconic), of 14 days of gestation were obtained fromTaconic Bioscience. On the day of the dissection (from pregnant females at 14 days of gestation), a piece of each embryo brain (˜3 mm) was placed in a 2 mL tube free DNase with a new scalpel. The DNA was extracted with the SYBR Green Extract-N-Amp tissue PCR kit (Sigma Aldrich). Briefly, 120 μL of extraction solution was put on each piece of embryo heads. Then, they were incubated for 10 min at room temperature. At the end of this incubation period, the heads were incubated for 5 min at 95° C. Immediately after this last incubation, 100 μL of neutralizing solution was added; each DNA extract was diluted at 1/40 and stored at +4° C. until use. SOD1G93A gene was determined using genomic fragment with human SOD1 primers (5′-[…]-3′ (SEQ ID NO: 1); 5′-[…]-3′ (SEQ ID NO: 2)). The SOD1 primers were diluted at 3 μM in sterile ultrapure water. Briefly, a mix for PCR was prepared with ultrapure water (4 μL per sample), primer at 3 μM (2 μL per sample) and Master Mix (10 μL per sample). In a PCR 96 wells plate, 16 μL of PCR mix was added in each well. 4 μL of each diluted DNA was added according to a plan deposit. The RT-PCR was ran using the CFX96 Biorad RT-PCR system, using the following program: Initial denaturation (95° C., 20 sec)/45 cycles (95° C., 10 sec; 65° C., 10 sec; 72° C., 30 sec)/Melt curve (95° C., 15 sec; 64° C., 1 min; 90° C., 30 sec; 60° C. 15 sec). The amplification plots and melt curves were analyzed with the Biorad software. The results for each sample were compared to negative control (ultrapure water) and to the positive control (DNA from Tg embryos).\nRat spinal cord motor neurons (MNs) were be cultured as described by Wang et al. 2013 and Boussicault et al., 2020. Briefly, pregnant female rats of 14 days gestation (Sprague Dawley; Taconic) were killed using a deep anesthesia with CO2 chamber and a cervical dislocation. Then, fetuses were removed from the uterus and immediately placed in ice-cold L15 Leibovitz medium with a 2% penicillin (10,000 U/ml) and streptomycin (10 mg/ml) solution (PS) and 1% bovine serum albumin (BSA).\nSpinal cords were treated for 20 min at 37° C. with a trypsin-EDTA solution at a final concentration of 0.05% trypsin and 0.02% EDTA. The dissociation was stopped by addition of Dulbecco's modified Eagle's medium (DMEM) with 4.5 g/liter of glucose, containing DNAse I grade II (final concentration 0.5 mg/mL) and 10% fetal calf serum (FCS). Cells were mechanically dissociated by three forced passages through the tip of a 10-ml pipette. Cells were then centrifuged at 515×g for 10 min at 4° C. The supernatant was discarded, and the pellet was resuspended in a defined culture medium consisting of Neurobasal medium with a 2% solution of B27 supplement, 2 mmol/liter of L-glutamine, 2% of PS solution, and 10 ng/ml of brain-derived neurotrophic factor (BDNF). Viable cells were counted in a Neubauer cytometer, using the trypan blue exclusion test. The cells were seeded at a density of 20,000 per well in 96-well plates precoated with poly-L-lysine and will be cultured at 37° C. in an air (95%)—CO2 (5%) incubator. […]",
  "data": [
    {"compound": "CCN1CCC(N(C)C(=O)c2csc(-c3cnn(-c4ccccc4)c3)n2)CC1", "note": "[Compound 196, N-(1-ethylpiperidin-4-yl)-N-methyl-2-(1-phenyl-1H-pyrazol-4-yl)-1,3-thiazole-4-carboxamide]", "values": [
      {"measurement": "effects in the in vitro model of ALS", "result": "positive effects"},
      {"measurement": "abnormal TDP43 accumulation in the cytoplasm resulting from glutamate injury", "setting": "0.5 μM, 1 μM and 10 μM", "result": "fully abolished"},
      {"measurement": "increase in neurite network length", "setting": "10 μM, compared to glutamate injury alone", "result": 16, "unit": "%"},
      {"measurement": "increase in number of motor neurons", "setting": "1 and 10 μM, compared to glutamate injury alone", "result": "> 10", "unit": "%"}
    ]}
  ]
}
